# Tests used:
# [1] = tested on: HCC1187; assay: Cell cycle analysis (Ki67 and Hoechst stain), HCC1187; type: cell-based, human; conditions: 10 μM, 48 hours
# Procedure: (§1) FIGS. 6A-6D show 6-(4-Tert-Butylphenoxy)Pyridin-3-Amine (I3) induces G0/G1 cell cycle arrest and apoptosis in human T cell acute lymphoblastic leukemia cell lines and human breast cancer cell line HCC1187. […] Percentage of Annexin V positive (apoptotic) cell population was measured using flow cytometry.
# (§2) In addition to induction of apoptosis, the proliferative arrest observed in 6-(4-Tert-Butylphenoxy)Pyridin-3-Amine (I3) treated human leukemic cell lines and breast cancer cell line also appears to be due to cell cycle arrest in G0/G1 phase of the cell cycle. Leukemic cell lines (RPMI8402, KOPTK1 and TALL1) and breast cancer cell lines were treated with 6-(4-Tert-Butylphenoxy)Pyridin-3-Amine (I3) for 48 hours and cell cycle status was determined using Ki67 and Hoechst stain.
# [2] = tested on: KOPTK1; assay: Cell cycle analysis (Ki67 and Hoechst stain), KOPTK1; type: cell-based, human; conditions: 10 μM
# Procedure: as §1, §2
# [3] = tested on: Hedgehog signalling (Gli1); assay: Hedgehog signalling Gli1 luciferase assay in HeLa cells; type: cell-based; conditions: HeLa cells with Gli1 and Gli1 binding site luciferase
# Text: Using a similar strategy, Hedgehog signalling was activated in HeLa cells by introducing the Gli1 transcription factor and pathway activation was monitored using a promoter sequence containing Gli1 binding sites driving the luciferase expression. […] However it still needs to be determined whether the resistance of Wnt and Hedgehog signalling towards 6-(4-Tert-Butylphenoxy)Pyridin-3-Amine (I3) is cell type specific or whether it is a general phenomenon.
# [4] = tested on: RPMI8402; assay: Annexin V apoptosis, RPMI8402; type: cell-based, human; conditions: 10 μM, 7 days
# Procedure: as §1
# To quantitate the percentage of apoptotic cells, AnnexinV and 7AAD staining was performed. Thymic cells were suspended in 300 μl of 1× AnnexinV binding buffer (BD Biosciences, San Diego, USA) and incubated with 10 μl of AnnexinV-Cy5 antibody and 10 μl of 7AAD (BD Biosciences, San Diego, USA). Samples were incubated for 15 minutes at room temperature. FACS was performed with in one hour of antibody staining.
# This 6-(4-Tert-Butylphenoxy)Pyridin-3-Amine (I3) mediated proliferative arrest could be due to induction of apoptosis or cell cycle arrest during different phases of cell cycle. […] Therefore to further elucidate the mechanisms responsible for 6-(4-Tert-Butylphenoxy)Pyridin-3-Amine (I3) mediated proliferative arrest cell cycle and apoptosis analyses were carried out. […] To investigate cell death, Annexin V staining was performed and proportion of apoptotic (AnnexinV positive) cell population was determined by flow cytometry analyses after 7 days of treatment.
# [5] = tested on: RPMI 8402 leukemic cells; assay: RPMI 8402 xenotransplantation in NOD/SCID γc−/− mice; type: in vivo, human
# Procedure: FIGS. 8A-8B show 6-(4-Tert-Butylphenoxy)Pyridin-3-Amine (I3) treatment increases latency of leukemia development in mice. […] On day 15, leukemic cells were established in the bone marrow. Mice were treated with oil or 6-(4-Tert-Butylphenoxy)Pyridin-3-Amine (I3) for every day. Mice were imaged on day 27 using Caliper IVIS (Xenogen) live imaging system. Red and blue colour indicates the intensity of luciferase signal and correlates with the number of leukemic cells. […] NOD/SCID γc^−/− mice were transplanted with 5×10^5 RPMI 8402 (luciferase expressing) cells. Leukemia development was followed using Caliper IVIS (Xenogen) live imaging system. […]
# The human leukemic cell lines RPMI 8402 and HPB ALL were transduced with a lentivirus containing luciferase gene constitutively expressed downstream of a CMV promoter. […] Mice were monitored for tumor development using Caliper IVIS (Xenogen) live imaging system. […]
# Similarly in a preliminary experiment, NOD/SCID γc^−/− mice were transplanted with 5×10^5 RPMI 8402 cells and treated with oil or 6-(4-Tert-Butylphenoxy)Pyridin-3-Amine (I3) following the establishment of the disease. […] Since these animals were treated with the chemical compound 6-(4-Tert-Butylphenoxy)Pyridin-3-Amine (I3) for 27 days, the intestinal tissue was analyzed to detect any toxicity in the gut.
# [6] = tested on: RPMI8402; assay: Cell cycle analysis (Ki67 and Hoechst stain), RPMI8402; type: cell-based, human; conditions: 10 μM
# Procedure: as §1, §2
# [7] = stated jointly for RPMI8402, KOPTK1 and TALL1
compound,measurement,setting,value
"CC(C)(C)c1ccc(Oc2ccc(N)cn2)cc1 [I3, 6-(4-Tert-Butylphenoxy)Pyridin-3-Amine]",cell cycle status,[1],induces an arrest in the G0/G1 phase of the cell cycle
same,cell cycle status,[2]; 48 hours,induces an arrest in the G0/G1 phase of the cell cycle
same,increase in cells arrested in G0/G1 phase of the cell cycle,[2]; [7],20-30%
same,Hedgehog signalling,[3],did not inhibit the Hedgehog signalling cascade
same,apoptosis (Annexin V positive cells),[4],induces significant apoptosis
same,leukemia development (luciferase live imaging),"[5]; 5×10^5 cells, daily treatment for 27 days after establishment of disease, preliminary experiment",blocks RPMI 8402 leukemic cell growth in xenotransplantation assay
same,metastatic lesions in the liver (histology),[5]; daily treatment for 27 days,did not develop any metastatic lesions in the liver
same,cell cycle status,[6]; 48 hours,induces an arrest in the G0/G1 phase of the cell cycle
same,increase in cells arrested in G0/G1 phase of the cell cycle,[6]; [7],20-30%

# Source: US10054581B1, “Inhibitors of notch signaling pathway and use thereof in treatment of cancers” (Ecole Polytechnique Federale de Lausanne (EPFL), priority 2011, dated 2018)
